Results reported in patent US20050014735A1, “Treatment of Th2 dominated immunological disease states with progesterone receptor antagonists” (Solvay Pharmaceuticals GmbH, priority 2001, published 2005).

Assays:
[1] = test system: peripheral blood mononuclear cells (PBMC); test: Th1 and Th2 cytokine profiles produced by mitogen-stimulated PBMC (ELISA), ex vivo; type: cell-based, human
Method: The effects of dydrogesterone on Th1 and Th2 cytokine profiles produced by mitogen-stimulated peripheral blood mononuclear cells (=PBMC) were determined. Several studies have pointed to a deviation of cytokine profiles in women when during pregnancy. Pregnancy is associated with a shift towards Th2 bias, evinced by changes in peripheral T cells, by cytokine production by peripheral lymphocytes and by cytokine changes at the maternal-fetal interface. Unexplained recurrent spontaneous abortion (URSA) seems to be associated with a stronger bias towards Th1 cytokines. Women who have earlier been gone through URSA may therefore be regarded as a pre-selected group of patients that will typically respond to an immunological stimulation by showing a Th1 dominated pattern of immune response. The pharmacological test was therefore performed with a suitable URSA group which comprised of women admitted with spontaneous abortion for evacuation, (i) who have had at least two previous unexplained miscarriages, (ii) who were currently undergoing at least a 3rd abortion and (iii) who had been fully investigated. The relationship between habitual abortion and cytokine production response in 54 women with normal pregnancy (and at least 3 previous normal pregnancies) and 23 women with a history of habitual abortion of unexplained aetiology (URSA group) has been investigated. Peripheral blood was obtained by venipuncture from the abortion group on the day of abortion. PBMC is separated by Ficoll-paque (Pharmacia Biotech, Sweden) density gradient centrifugation, suspended in RPMI medium (=“Roswell Park Memorial Institute”-medium; obtained from GIBCO/BRL, USA) containing 10% fetal calf serum, aliquoted into 96 well tissue culture plates at a density of 100.000 cells per well and then stimulated with the mitogen phytohemagglutinin (=PHA, Sigma Chemicals, USA) at a concentration of […] for a period of 96 hours, with autologous placental antigens or with trophoblast antigens. […] Progesterone was tested at concentrations of […]. RU486 was tested at equivalent concentrations. Culture supernatants were harvested at 96 hours for determination of the levels of cytokines secreted by the PBMC into the supernatants. Cytokine levels were determined in the supernatants by enzyme-linked immunosorbent assay (=ELISA). Each sample was tested in the following manner: • PBMC+mitogen • PBMC+mitogen+progesterone • PBMC+mitogen+progesterone+RU486 • PBMC+mitogen+dydrogesterone • PBMC+mitogen+dydrogesterone+RU486 • PBMC+mitogen+Carrier • PBMC+mitogen+Carrier+RU486 Th1 cytokines TNF-α and IFN-γ, and Th2 cytokines IL-4, IL-6 and IL-10 were evaluated in these samples by ELISA using kits that were obtained from Immunotech SA, France. These consisted of “sandwich ELISA”; briefly the first step leads to the capture of the relevant cytokine by monoclonal anti-cytokine antibodies bound to the wells of microtiter plates. In the second step, a second biotinylated monoclonal is added together with streptavidin-enzyme (peroxidase or alkaline phosphatase) conjugate. The biotinylated antibody binds to the solid phase antibody-antigen complex, and in turn, binds the conjugate. After incubation the wells are washed and the binding of the streptavidin-enzyme via biotin is followed by the addition of a chromogenic substrate. The intensity of the coloration produced is proportional to the concentration of the cytokine in the sample. Standard curves are plotted for each of the cytokines using reference recombinant cytokines and the results are read from these curves. The sensitivity of each of the assays is as follows: 5 pg/ml of TNF-α, 0.08 IU/ml of IFN-γ, 5 pg/ml of IL-4 and 5 pg/ml of IL-10. Results will be analysed by the t-test for independent samples.

[2] = test system: Th1 cytokine production; settings: in vitro, women with recurrent pregnancy loss; cited from earlier work
[3] = PBMC of women with spontaneous abortion and habitual abortion
[4] = PBMC supernatant, ELISA, 96 hours

SMILES | Th1/Th2 bias of cytokine profile [1, 3] | activity of lymphocytes [1, 3] | IFN-γ level [1, 4] | Interleukin 4 level [1, 4] | Interleukin 6 level [1, 4] | release of progesterone induced blocking factor (PIBF) ([1]; women with spontaneous abortion and habitual abortion) | embryotoxic Th1 cytokine production to trophoblast [2]
CC(=O)[C@H]1CC[C@H]2[C@@H]3C=CC4=CC(=O)CC[C@@]4(C)[C@@H]3CC[C@]12C [dydrogesterone] | shift from a Th1 towards a Th2 bias | reduced | reduction | marked increase | marked increase | increased release | 
CC(=O)[C@H]1CC[C@H]2[C@@H]3CCC4=CC(=O)CC[C@]4(C)[C@H]3CC[C@]12C [progesterone] |  |  |  |  |  |  | inhibits
